Tests used:
[1] = test system: central nervous system activity; settings: Loev et al. 1973; cited from earlier work
hashish activity = settings: Bergel et al. 1943, cited from earlier work
hot plate = assay: Mouse hot plate analgesic testing (HP); type: in vivo, mice; settings: Mus musculus; hot plate, mice
Description: (§1) Tests Using Thermal Nociceptive Stimuli
(a) Mouse Hot Plate Analgesic Testing
The method used is modified after Woolfe and MacDonald, J. Pharmacol. Exp. Ther., 80, 300-307 (1944). A controlled heat stimulus is applied to the feet of mice on a 1/8" thick aluminum plate. A 250 watt reflector infrared heat lamp is placed under the bottom of the aluminum plate. A thermal regulator, connected to thermistors on the plate surface, programs the heat lamp to maintain a constant temperature of 57° C. Each mouse is dropped into a glass cylinder (61/2" diameter) resting on the hot plate, and timing is begun when the animal's feet tough the plate. The mouse is observed at 0.5 and 2 hours after treatment when the test compound for the first "flicking"movements of one or both hind feet, or until 10 seconds elapse without such movements. Morphine has an MPE50 =4-5.6 mg./kg. (s.c.).
(§2) Results of the above tests are recorded as percent maximum possible effect (% MPE). The % MPE of each group is statistically compared to the % MPE of the standard and the predrug control values. The % MPE is calculated as follows: [formula]
(§3) By means of the above procedures, the analgesic activity of several compounds of this invention and of certain prior art compounds are determined. The data are reported in terms of maximum possible effect.
(§4) PBQ=phenylbenzoquinone-induced writhing; TF=tail flick; HP=hot plate; RTC=rat tail clamp; FJ=flinch jump; and TI=tail immersion assays.

tail flick = assay: Mouse tail flick analgesic testing (TF); type: in vivo, mice; settings: Mus musculus; tail flick, mice
Source text: as §1
(b) Mouse Tail Flick Analgesic Testing
Tail flick testing in mice is modified after D'Amour and Smith, J. Pharmacol. Exp. Ther., 72, 74-79 (1941), using controlled high intensity heat applied to the tail. Each mouse is placed in a snug-fitting metal cylinder, with the tail protruding through one end. This cylinder is arranged so that the tail lies flat over a concealed heat lamp. At the onset of testing, an aluminum flag over the lamp is drawn back allowing the light beam to pass through the slit and focus onto the end of the tail. A timer is simultaneously activated. The latency of a sudden flick of the tail is ascertained. Untreated mice usually react within 3-4 seconds after exposure to the lamp. The end point for protection is 10 seconds. Each mouse is tested at 0.5 and 2 hours after treatment with morphine and the test compound. Morphine has an MPE50 of 3.2-5.6 mg./kg. (s.c.).
as §2, §3, §4

rat tail clamp = assay: Haffner tail pinch procedure / rat tail clamp (RTC); type: in vivo, male albino rats, Charles River (Sprague-Dawley) CD strain; settings: 1 hour, read-out: ANALGESIC ACTIVITY ED50, RTC 1 hour
Description: Tests Using Pressure Nociceptive Stimuli
Effect on the Haffner Tail Pinch Procedure
A modification of the procedure of Haffner, Experimentelle Prufung Schmerzstillender. Mittel Deutch Med. Wschr., 55, 731-732 (1929) is used to ascertain the effects of the test compound on aggressive attacking responses elicited by a stimulus pinching the tail. Male albino rats (50-60 b.) of the Charles River (Sprague-Dawley) CD strain are used. Prior to drug treatment, and again at 0.5, 1, 2 and 3 hours after treatment, a Johns Hopkins 2.5-inch "bulldog" clamp is clamped onto the root of the rat's tail. The endpoint at each trial is clear attacking and biting behavior directed toward the offending stimulus, with the latency for attack recorded in seconds. The clamp is removed in 30 seconds if attacking has not yet occurred, and the latency of response is recorded as 30 seconds. Morphine is active at 17.8 mg./kg. (i.p.).
as §2, §3, §4

flinch jump = assay: Flinch-jump test (FJ); type: in vivo, male albino rats, Charles River (Sprague-Dawley) CD strain; settings: Rattus norvegicus, rats, 2 hours, read-out: ANALGESIC ACTIVITY ED50, FJ 2 hours
Source text: Tests Using Electrical Nociceptive Stimuli
A modification of the flinch-jump procedure of Tenen, Psychopharmacologia, 12, 278-285 (1968) is used for determining pain thresholds. Male albino rats (175-200 g.) of the Charles River (Sprague-Dawley) CD strain are used. Prior to receiving the drug, the feet of each rat are dipped into a 20% glycerol/saline solution. The animals are then placed in a chamber and presented with a series of 1-second shocks to the feet which are delivered in increasing intensity at 30-second intervals. These intensities are 0.26, 0.39, 0.52, 0.78, 1.05, 1.31, 1.58, 1.86, 2.13, 2.42, 2.72 and 3.04 mA. Each animal's behavior is rated for the presence of (a) flinch, (b) squeak and (c) jump or rapid forward movement at shock onset. Single upward series of shock intensities are presented to each rat just prior to, and at 0.5, 2, 4 and 24 hours subsequent to drug treatment.
as §2, §3, §4

tail immersion = assay: Tail immersion procedure (TI); type: in vivo, male albino mice, Charles River CD-1 strain; settings: Mus musculus, 0.5 h; tail immersion, mice, 1/2 hour; read-out: ANALGESIC ACTIVITY ED50, TI 1/2 hour
Description: (c) Tail Immersion Procedure
The method is a modification of the receptacle procedure developed by Benbasset, et al., Arch. int. Pharmacodyn., 122, 434 (1959). Male albino mice (19-21 g.) of the Charles River CD-1 strain are weighed and marked for identification. Five animals are normally used in each drug treatment group with each animal serving as its own control. For general screening purposes, new test agents are first administered at a dose of 56 mg./kg. intraperitoneally or subcutaneously, delivered in a volume of 10 ml./kg. Preceding drug treatment and at 0.5 and 2 hours post drug, each animal is placed in the cylinder. Each cylinder is provided with holes to allow for adequate ventilation and is closed by a round nylon plug through which the animal's tail protrudes. The cylinder is held in an upright position and the tail is completely immersed in the constant temperature waterbath (56° C.). The endpoint for each trial is an energetic jerk or twitch of the tail coupled with a motor response. In some cases, the endpoint may be less vigorous post drug. To prevent undue tissue damage, the trial is terminated and the tail removed from the waterbath within 10 seconds. The response latency is recorded in seconds to the nearest 0.5 second. A vehicle control and a standard of known potency are tested concurrently with screening candidates. If the activity of a test agent has not returned to baseline values at the 2-hour testing point, response latencies are determined at 4 and 6 hours. A final measurement is made at 24 hours if activity is still observed at the end of the test day.
as §2, §3, §4

[2] = test system: phenylbenzoquinone-induced writhing; assay: Suppression of phenylbenzoquinone irritant-induced writhing (PBQ); type: in vivo, Carworth Farms CF-1 mice; settings: Mus musculus, mice, read-out: ANALGESIC ACTIVITY ED50, PBQ
Description: Test Using Chemical Nociceptive Stimuli
Suppression of Phenylbenzoquinone Irritant-Induced Writhing
Groups of 5 Carworth Farms CF-1 mice are pretreated subcutaneously or orally with saline, morphine, codeine or the test compound. Twenty minutes (if treated subcutaneously) or fifty minutes (if treated orally) later, each group is treated with intraperitoneal injection of phenylbenzoquinone, an irritant known to produce abdominal contractions. The mice are observed for 5 minutes for the presence or absence of writhing starting 5 minutes after the injection of the irritant. MPE50 's of the drug pretreatments in blocking writhing are ascertained.
as §2, §3, §4

Structure (SMILES): CCCCCC(C)Oc1cc(O)c2c(c1)OC(C)(C)C1=C2CC(C)CC1 (stereo not shown) [--OCH(CH3)C5 H11]
- less active in central nervous system activity than the corresponding compound with the alkyl side chain directly attached [1]: 50%
- times as active as the compound in which oxygen is replaced by methylene [1]: 5 times

Structure (SMILES): CCCCCCCCOc1cc(O)c2c(c1)OC(C)(C)C1=C2CC(C)CC1 (stereo not shown) [octoxy]
- biological activity on replacing the 3-pentyl group by alkoxy (hashish activity): biological inactivity

Structure (SMILES): CCCCCCOc1cc(O)c2c(c1)OC(C)(C)C1=C2CC(C)CC1 (stereo not shown) [hexoxy]
- biological activity on replacing the 3-pentyl group by alkoxy (hashish activity): biological inactivity
- hashish activity (hashish activity; at 10 to 20 mg./kg.): feeble hashish activity

Structure (SMILES): CCCCCOc1cc(O)c2c(c1)OC(C)(C)C1=C2CC(C)CC1 (stereo not shown) [pentoxy]
- biological activity on replacing the 3-pentyl group by alkoxy (hashish activity): biological inactivity

Structure (SMILES): CC(CCCc1ccccc1)Oc1cc(O)c2c(c1)OC(C)(C)[C@@H]1CC[C@@H](O)C[C@@H]21 (relative stereo) [OCH(CH3)(CH2)3C6 H5, dl-6aβ,7,8,9,10,10aα-hexahydro-1-hydroxy-6,6-dimethyl-3-(1-methyl-4-phenylbutoxy)-6H-dibenzo[b,d]pyran-9β-ol]
- ED50 (hot plate): 0.76 mg/kg
- ED50 (tail flick): 0.33 mg/kg
- ED50 (rat tail clamp): 1.9 mg/kg
- ED50 (flinch jump): 0.44 mg/kg
- ED50 (tail immersion): 0.4 mg/kg
- ED50 [2]: 0.11 mg/kg

Structure (SMILES): CCCCOc1cc(O)c2c(c1)OC(C)(C)C1=C2CC(C)CC1 (stereo not shown) [butoxy]
- biological activity on replacing the 3-pentyl group by alkoxy (hashish activity): biological inactivity
